Source: patent US8669378B2, “Process for synthesizing epicconone analogs” (Universite de Rouen, priority 2009, dated 2014)

Tests used:
Format in all cases: physicochemical
[1] = Fluorescence of the adducts with butylamine in acetonitrile; parameters: Δ Stokes: unit not given here; details: Bioconjugated molecule (BuNH2) in CH3CN; for Δ Stokes: emission minus excitation wavelength; for λ fluo (λ excitation) (nm): excitation at maximum-absorption wavelength; for Intensity normalized to 50 μM: fluorescence intensity
Procedure: (§1) Apparatus: • Acetonitrile: VWR HPLC quality • Micropipette: 5 μl, 10 μl, 200 μl, 1000 μl, • Eppendorf: Safe lock tube PCR • UV cuvette: Varian-Quartz 10 mm thick • Fluorescence cuvette: Hellma-Quartz 10 mm thick • Vortex: Bender & Hobein-Genie 2 • Centrifuge: Baky Bug • Absorbance spectrophotometer: Varian-Cary 50 scan • Fluorescence spectrophotometer: Varian-Cary Eclipse • Thermostated bath: Varian-Cary single cell peltier accessory Stock Solution:
(§2) Approximately exactly 1 to 2 mg of compound Ia-Io are weighed out in a 1.5 mL Eppendorf tube. The stock solutions are then prepared by adding exactly 1 mL of acetonitrile and the Eppendorf tubes are then stored protected from light.
Two protocols were implemented for the fluorescence tests. • For compounds Ii-Ik: 125 μL of the preceding solution (absorbance solution) are diluted to 1.25 mL by adding 1125 μl of acetonitrile to a fluorescence cuvette. The analysis is then performed on the fluorescence spectrophotometer by excitation at the respective maximum-absorption wavelengths. • For compounds Ia-Ih and Il-Io: 1250 μl of the preceding solution (absorbance) are placed in a fluorescence cuvette. The analysis is then performed on the fluorescence spectrophotometer by excitation at the respective maximum-absorption wavelengths.

[2] = Absorbance of the adducts with butylamine in acetonitrile; details: Bioconjugated molecule (BuNH2) in CH3CN; for λ UV (nm), second maximum: longer-wavelength absorption maximum, used for excitation; for λ UV (nm), first maximum: shorter-wavelength absorption maximum
Procedure: as §1, §2
30 μl of stock solution are placed in a 1.5 mL Eppendorf tube. At room temperature, 10 μl (or 30 μl in the case of Ik) of a 0.15 M solution of butylamine/acetonitrile are added and the medium is stirred by vortex and then centrifuged. After diluting to 1 mL by adding 960 μl of acetonitrile (or 940 μl in the case of Ik), the clear solution is transferred into a UV cuvette and then made up to 2 mL with acetonitrile. The analysis is then performed after producing a “blank” spectrum with a pure acetonitrile solution.

[3] = Photobleaching of stained standard proteins in gel under UV transilluminator; details: protein-stained gel, first-order exponential decay fit, deduced from FIG. 1
Procedure: The compounds were dissolved at 10 mg/mL in DMSO. The stock solutions obtained were diluted to 1 mg/mL in water and divided into 100 μL aliquots for storage. All the products and aliquots were stored at −80° C.
Standard proteins (SDS labeling kit-low molecular weight sold by GE, 17-0446-01) were diluted in an LDS buffer (250 μL Invitrogen 4×LDS buffer, 100 μL of 1 M DDT, 650 μL of water) to create serial dilutions ranging from 128 ng/STI band to 125 pg/STI band.
5 μL of each protein solution were loaded onto NuPAGE® Novex® 12% bis-tris gels (1.0 mm thick, 12 wells, Invitrogen NP0342BOX). The gels were subjected to a current of 150 V for approximately 65 minutes using MES buffer (50 mM MES, 50 mM tris, 1 mM EDTA, 0.1% SDS, pH 7.3) so that the buffer front arrives just up to the gel. After eluting the dye, the gels were fixed for 1 to 17 hours (100 mL of fixing solution with 15% EtOH (v/v) and 1% citric acid) in individual lanes. The fixing solution used was replaced with fresh solution one hour after staining. The gels were stained for 1 hour in 50 mL of sodium borate buffer at 100 mM (pH 10.9) containing either […] of LavaPurple gel dye (Fluorotechnics; LP-011005) or one of the test compounds (50 μL for a 1 mg/mL solution). The gels were treated with 100 mL of 15% ethanol and then washed with 100 mL of fixing solution for 30 minutes.
Imaging was performed using a Typhoon Trio imager (excitation: 532 nm, emission filter: 610BP30, 540 PMT, resolution: 100 μm) using a normal sensitivity. The recorded image corresponds to the scan at time zero. The gels were then placed in a UV transilluminator for 60, 146, 240, 330, 630 and 990 seconds (total exposure time), a Typhoon scanner image being recorded between each exposure. The volumes of the bands were analyzed using the Image-Quant TL software, and all the band volumes were normalized with phosphorylase B. The photobleaching was analyzed by graphically representing the band volumes as a function of the exposure time (GraphPad Prism v4 software) and by fitting the curve to a first-order exponential decay to determine a pseudofirst-order rate constant.
FIG. 1 represents the decrease of the normalized residual signal of compounds (Ii), (Ij), (Ik), (In) and (Io) according to the invention and of epicocconone.
From this FIGURE, the half-life times of the compounds may be deduced: […]

SMILES | Δ Stokes [1] | λ fluo (λ excitation) (nm) [1] [nm] | Intensity normalized to 50 μM [1] | λ UV (nm), second maximum [2] [nm] | λ UV (nm), first maximum [2] [nm] | Half-life time [3] [min]
CC1CC2=CC3=C(C(=O)c4ccccc4)C(=O)OC3(C)C(=O)C2=CO1 (centres unmarked) [Ia, 3-benzoyl-6,9a-dimethyl-5,6-dihydro-9aH-furo[3,2-g]isochromene-2,9-dione] | 113 | 585 | 98 | 472 | 351 | –
COCCOCCOc1ccc(C(=O)C2=C3C=C4CC(C)OC=C4C(=O)C3(C)OC2=O)cc1 (centres unmarked) [Ie, 3-(4-(2-(2-methoxyethoxy)ethoxy)benzoyl)-6,9a-dimethyl-5,6-dihydro-9aH-furo[3,2-g]isochromene-2,9-dione] | 137 | 590 | 120 | 453 | 349 | –
COc1ccccc1C(=O)C1=C2C=C3CC(C)OC=C3C(=O)C2(C)OC1=O (centres unmarked) [If, 3-(2-methoxybenzoyl)-6,9a-dimethyl-5,6-dihydro-9aH-furo[3,2-g]isochromene-2,9-dione] | 120 | 589 | 147 | 469 | 351 | –
CC1CC2=CC3=C(C(=O)c4ccco4)C(=O)OC3(C)C(=O)C2=CO1 (centres unmarked) [Ic, 3-(furan-2-carbonyl)-6,9a-dimethyl-5,6-dihydro-9aH-furo[3,2-g]isochromene-2,9-dione] | 128 | 593 | 193 | 465 | 352 | –
CC1CC2=CC3=C(C(=O)c4ccc5ccccc5c4)C(=O)OC3(C)C(=O)C2=CO1 (centres unmarked) [Id, 3-(2-naphthoyl)-6,9a-dimethyl-5,6-dihydro-9aH-furo[3,2-g]isochromene-2,9-dione] | 106 | 570 | 173 | 464 | 351 | –
CC(C(=O)C1=C2C=C3CC(C)(C)OC=C3C(=O)C2(C)OC1=O)C(=O)c1ccccc1 (centres unmarked) [Im, 6,6,9a-trimethyl-3-(2-methyl-3-oxo-3-phenylpropanoyl)-5,6-dihydro-9aH-furo[3,2-g]isochromene-2,9-dione] | 102 | 591 | 202 | 489 | 351 | –
CC1CC2=CC3=C(C(=O)c4ccccc4O)C(=O)OC3(C)C(=O)C2=CO1 (centres unmarked) [Ig, 3-(2-hydroxybenzoyl)-6,9a-dimethyl-5,6-dihydro-9aH-furo[3,2-g]isochromene-2,9-dione] | 134 | 597 | 32 | 463 | 350 | –
COc1ccc(C(=O)C2=C3C=C4CC(C)OC=C4C(=O)C3(C)OC2=O)cc1 (centres unmarked) [Ib, 3-(4-methoxybenzoyl)-6,9a-dimethyl-5,6-dihydro-9aH-furo[3,2-g]isochromene-2,9-dione] | 134 | 586 | 205 | 452 | 351 | –

The remaining lines, values ahead:

Δ Stokes [1] | λ fluo (λ excitation) (nm) [1] [nm] | Intensity normalized to 50 μM [1] | λ UV (nm), second maximum [2] [nm] | λ UV (nm), first maximum [2] [nm] | Half-life time [3] [min] | SMILES
98 | 603 | 3988 | 505 | 366 | 6.6 | COc1ccc(/C(O)=C/C(=O)C2=C3C=C4CC(C)(C)OC=C4C(=O)C3(C)OC2=O)cc1 (centres unmarked) [Ij, (Z)-3-(3-hydroxy-3-(4-methoxyphenyl)acryloyl)-6,6,9a-trimethyl-5,6-dihydro-9aH-furo[3,2-g]isochromene-2,9-dione]
90 | 588 | 264 | 498 | 350 | – | COc1ccc(C(=O)C(C)C(=O)C2=C3C=C4CC(C)(C)OC=C4C(=O)C3(C)OC2=O)cc1 (centres unmarked) [Il, 3-(3-(4-methoxyphenyl)-2-methyl-3-oxopropanoyl)-6,6,9a-trimethyl-5,6-dihydro-9aH-furo[3,2-g]isochromene-2,9-dione]
94 | 606 | 4157 | 512 | 365 | 22.4 | CC1(C)CC2=CC3=C(C(=O)/C=C(\O)c4ccccc4)C(=O)OC3(C)C(=O)C2=CO1 (centres unmarked) [Ik, (Z)-3-(3-hydroxy-3-phenylacryloyl)-6,6,9a-trimethyl-5,6-dihydro-9aH-furo[3,2-g]isochromene-2,9-dione]
87 | 612 | 2764 | 525 | 363 | 33.1 | CC1(C)CC2=CC3=C(/C(O)=C/C(=O)c4ccc(Cl)nc4)C(=O)OC3(C)C(=O)C2=CO1 (centres unmarked) [In, 3-[3-(6-chloro-pyridin-3-yl)-1-hydroxy-3-oxopropenyl]-6,6,9a-trimethyl-5,6-dihydro-9aH-furo[3,2-g]isochromene-2,9-dione]
99 | 596 | 3020 | 497 | 366 | 18.3 | COc1ccc(/C(O)=C/C(=O)C2=C3C=C4CC(C)OC=C4C(=O)C3(C)OC2=O)cc1 (centres unmarked) [Ii, (Z)-3-(3-hydroxy-3-(4-methoxyphenyl)acryloyl)-6,9a-dimethyl-5,6-dihydro-9aH-furo[3,2-g]isochromene-2,9-dione]
89 | 609 | 4320 | 520 | 364 | 44.7 | CC1(C)CC2=CC3=C(C(=O)/C=C(\O)c4ccc5ccccc5c4)C(=O)OC3(C)C(=O)C2=CO1 (centres unmarked) [Io, 3-(1-hydroxy-3-naphtalen-2-yl-3-oxopropenyl)-6,6,9a-trimethyl-5,6-dihydro-9aH-furo[3,2-g]isochromene-2,9-dione]
130 | 590 | 155 | 460 | 354 | – | COc1ccc(C(=O)C2=C3C=C4CC(C)(C)OC=C4C(=O)C3(C)OC2=O)cc1 (centres unmarked) [Ih, 3-(4-methoxybenzoyl)-6,6,9a-trimethyl-5,6-dihydro-9aH-furo[3,2-g]isochromene-2,9-dione]
